Data from publication PMC8333062, “Chemical tools for epichaperome-mediated interactome dysfunctions of the central nervous system” (Nature Communications, 2021).
pIC50: −log10 of the molar value. Where “and” joins values, the source holds several entries; their conditions need not be identical. Equal values may be shown once. Read-outs that look alike come from different tables or passages of the source.

Experiments:
[1] = target: T1, CYP3A4 (Homo sapiens, UniProt P08684); experiment: Cytochrome P450 profiling, troleandomycin; assay type: in vitro ADME; conditions: for % PU-HZ151 remaining: Troleandomycin
T1 construct: tissue Life Technologies HMMCPL; host or cells: human liver microsomes
T1 sequence (P08684 whole entry): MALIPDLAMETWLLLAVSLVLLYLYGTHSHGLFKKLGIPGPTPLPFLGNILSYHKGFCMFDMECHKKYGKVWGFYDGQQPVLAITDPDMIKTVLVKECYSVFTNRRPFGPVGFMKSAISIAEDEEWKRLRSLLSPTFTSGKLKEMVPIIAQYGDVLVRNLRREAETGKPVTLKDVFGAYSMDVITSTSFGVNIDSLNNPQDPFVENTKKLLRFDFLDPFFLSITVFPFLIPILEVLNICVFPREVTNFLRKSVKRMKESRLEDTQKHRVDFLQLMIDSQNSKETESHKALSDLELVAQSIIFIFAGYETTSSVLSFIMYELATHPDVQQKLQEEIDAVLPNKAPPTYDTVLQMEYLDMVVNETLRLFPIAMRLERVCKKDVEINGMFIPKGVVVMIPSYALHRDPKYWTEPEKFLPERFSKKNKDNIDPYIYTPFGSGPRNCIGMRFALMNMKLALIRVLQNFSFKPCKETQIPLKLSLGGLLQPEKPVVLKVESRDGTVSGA
Method: (§1) To identify cytochrome P450 enzymes responsible for PU-HZ151’s metabolism in human liver microsomes the following procedure was followed. Phosphate buffer (100 mM, pH 7.4) was prepared monthly and stored at 4 °C. Frozen stock solutions of human liver microsomes (Life Technologies; Cat# HMMCPL) were used once after thawing and were not refrozen. NADPH stock solution (50 mM) in distilled water was prepared fresh daily. […] The stock solutions of these P450 inhibitors were prepared in DMSO. […] The concentration of the chemical inhibitors used in the assay were furafylline (10 μM), tranylcypromine (2 μM), ketoconazole (1 μM), troleandomycin (20 μM), orphenadrine (50 μM), montelukast (3 μM), sulfaphenazole (10 μM), benzylnirvanol (1 μM), quinidine (1 μM), and 1-aminobenzotriazole (1 mM) for all the P450 enzymes. Timing of the reactions was started following the addition of NADPH/magnesium chloride mix and PU-HZ151. Time-dependent chemical inhibitors (furafylline, troleandomycin, orphenadrine, and 1-aminobenzotriazole) were preincubated with human microsomes in the presence of NADPH and magnesium chloride for 15 min before the addition of PU-HZ151 and timing of reactions was started after addition of PU-HZ151. […] Following brief vortexing and centrifugation, a 200 µL aliquot of the supernatant was transferred to a tube, and 10 µL of haloperidol (1 µg mL^−1) as internal standard was added. Following brief vortexing and centrifugation, 50 µL of supernatant was added to a 96-well plate for subsequent LC-MS/MS analysis. PU-HZ151 was similarly tested as above in the absence of CYP inhibitors for comparative purposes. All samples were assayed in duplicate. […] This was similarly performed for incubations of PU-HZ151 performed in the absence of CYP inhibitor.

[2] = target: T2, hERG potassium channel (IKr) (Homo sapiens, UniProt Q12809); experiment: General side effect profile (SEP) II diversity panel; assay type: binding; conditions: human; 1.0E-5 M; read-out: Percent Inhibition: Potassium Channel, I [Kr] (hERG) (h)
T2 construct: purchased Caliper Life Sciences (now PerkinElmer), NOVASCREEN General SEP II
T2 sequence (Q12809 whole entry): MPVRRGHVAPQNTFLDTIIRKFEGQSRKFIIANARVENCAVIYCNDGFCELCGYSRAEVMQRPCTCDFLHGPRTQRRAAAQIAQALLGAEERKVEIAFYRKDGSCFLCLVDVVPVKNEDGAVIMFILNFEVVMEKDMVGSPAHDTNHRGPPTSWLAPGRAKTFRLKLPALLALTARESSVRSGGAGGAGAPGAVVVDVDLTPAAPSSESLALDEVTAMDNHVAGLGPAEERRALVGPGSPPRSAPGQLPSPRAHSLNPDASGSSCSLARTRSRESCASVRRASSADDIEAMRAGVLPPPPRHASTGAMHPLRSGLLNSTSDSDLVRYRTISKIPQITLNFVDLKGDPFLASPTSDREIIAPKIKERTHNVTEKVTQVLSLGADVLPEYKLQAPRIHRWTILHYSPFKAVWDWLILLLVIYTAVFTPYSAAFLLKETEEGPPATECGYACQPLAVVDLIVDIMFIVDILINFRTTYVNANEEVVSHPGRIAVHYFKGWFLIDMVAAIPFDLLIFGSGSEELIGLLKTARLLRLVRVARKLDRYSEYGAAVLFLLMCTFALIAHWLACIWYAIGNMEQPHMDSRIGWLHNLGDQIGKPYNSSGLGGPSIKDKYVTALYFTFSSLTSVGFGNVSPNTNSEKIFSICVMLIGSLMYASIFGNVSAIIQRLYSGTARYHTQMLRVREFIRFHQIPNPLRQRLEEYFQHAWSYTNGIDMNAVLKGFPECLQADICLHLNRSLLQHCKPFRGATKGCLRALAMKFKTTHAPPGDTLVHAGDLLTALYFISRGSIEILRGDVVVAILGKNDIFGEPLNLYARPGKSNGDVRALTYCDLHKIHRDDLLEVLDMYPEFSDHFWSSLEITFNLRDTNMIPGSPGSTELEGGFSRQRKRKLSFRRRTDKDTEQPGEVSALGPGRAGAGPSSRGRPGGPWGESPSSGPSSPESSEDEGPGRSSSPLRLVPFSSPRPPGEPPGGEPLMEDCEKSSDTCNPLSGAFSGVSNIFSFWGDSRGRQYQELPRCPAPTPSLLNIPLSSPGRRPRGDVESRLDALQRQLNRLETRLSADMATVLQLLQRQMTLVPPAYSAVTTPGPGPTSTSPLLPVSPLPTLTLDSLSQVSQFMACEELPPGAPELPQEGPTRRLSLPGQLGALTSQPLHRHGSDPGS

[3] = target: T3, CYP2C8 (Homo sapiens, UniProt P10632); experiment: Cytochrome P450 profiling, montelukast; assay type: in vitro ADME; conditions: for % PU-HZ151 remaining: Montelukast
T3 construct: tissue Life Technologies HMMCPL; host or cells: human liver microsomes
T3 sequence (P10632 1-490): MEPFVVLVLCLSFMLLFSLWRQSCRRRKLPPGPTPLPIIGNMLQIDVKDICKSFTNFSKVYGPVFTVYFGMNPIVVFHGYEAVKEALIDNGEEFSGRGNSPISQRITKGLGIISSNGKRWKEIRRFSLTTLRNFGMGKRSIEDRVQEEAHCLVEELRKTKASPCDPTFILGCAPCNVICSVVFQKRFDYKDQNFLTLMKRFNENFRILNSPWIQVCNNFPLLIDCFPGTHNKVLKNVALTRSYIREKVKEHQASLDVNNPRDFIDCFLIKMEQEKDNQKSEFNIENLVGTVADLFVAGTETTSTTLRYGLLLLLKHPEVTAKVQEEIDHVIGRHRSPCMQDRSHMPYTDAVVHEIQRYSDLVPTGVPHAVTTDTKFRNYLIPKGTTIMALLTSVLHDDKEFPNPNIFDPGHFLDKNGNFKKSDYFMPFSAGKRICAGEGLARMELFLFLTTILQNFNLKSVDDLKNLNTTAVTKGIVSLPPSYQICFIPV
Method: as §1

[4] = system: epichaperomes in MDA-MB-468 cells; experiment: Epichaperome modulation, Native PAGE; assay type: cell-based, human
[5] = target: T4, CYP2C19 (Homo sapiens, UniProt P33261); experiment: Cytochrome P450 profiling, benzylnirvanol; assay type: in vitro ADME; conditions: for % PU-HZ151 remaining: Benzylnirvanol
T4 construct: PU-HZ151 (1 µM) was incubated with human liver microsomes (0.5 mg protein mL^−1); tissue Life Technologies HMMCPL; host or cells: human liver microsomes
T4 sequence (P33261 whole entry): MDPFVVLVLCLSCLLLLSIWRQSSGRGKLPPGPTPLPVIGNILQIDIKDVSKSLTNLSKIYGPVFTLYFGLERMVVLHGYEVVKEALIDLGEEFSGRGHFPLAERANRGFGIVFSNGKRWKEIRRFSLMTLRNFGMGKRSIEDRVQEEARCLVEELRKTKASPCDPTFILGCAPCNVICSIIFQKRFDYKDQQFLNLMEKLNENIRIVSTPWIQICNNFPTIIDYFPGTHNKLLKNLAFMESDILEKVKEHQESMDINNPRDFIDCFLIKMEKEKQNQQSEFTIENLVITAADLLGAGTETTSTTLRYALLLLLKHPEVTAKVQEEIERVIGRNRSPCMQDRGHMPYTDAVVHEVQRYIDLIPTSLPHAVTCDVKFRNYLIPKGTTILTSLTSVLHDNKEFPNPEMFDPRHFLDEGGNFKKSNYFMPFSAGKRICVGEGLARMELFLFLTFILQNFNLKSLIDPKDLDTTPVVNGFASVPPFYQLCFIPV
Method: as §1

[6] = system: HER2 in SKBR3 cells; experiment: HER2 degradation; assay type: cell-based, human
[7] = system: normal neurons; assay type: cell-based; conditions: constant exposure of 72 hours
[8] = Pharmacokinetic studies in mice (LC-MS/MS); assay type: in vivo, B6D2F1 mice; design: key to Brain level: brain drug concentration in μM, corrected for 0.8 mL/g water space; Plasma level: unit: uM; conditions: for Brain level / Plasma level: listed as PU-HZ151
Method: Blood and brain tissue were collected following euthanasia at the scheduled time points of 5, 30 min, 1, 4, and 8 h following iv dosing and of 30 min, 1, 4, and 8 h following po dosing. Brain samples were immediately flash frozen in liquid nitrogen following collection and stored at −80 °C until analysis. Blood samples were collected into an EDTA tube by heart puncture and centrifuged at 17,000×g for 5 min at 4 °C to separate the plasma and immediately frozen on dry ice and stored at −80 °C until analysis. […] This was homogenized, extracted with methylene chloride, and evaporated on a GeneVac. […] Drug concentration (μM) in the brain was then modified to account for an average water space of 0.8 mL g^−1.

[9] = system: intracranial MDA-MB-468; experiment: Survival studies in mice; assay type: in vivo, mouse; conditions: 50 mg kg^−1 iv, three times per week, n=7
[10] = LC/MS-MS tissue concentration 48 h after 75 mg kg-1 ip; assay type: in vivo; conditions: mouse, MDA-MB-468 tumor, intraperitoneal, 75 mg kg^−1, 48 h post 75mg/kg ip, mouse 1-4; read-out: [PU-HZ151] MDA-MB-468 TUMOR
[11] = system: MDA-MB-468 tumor and organs; experiment: as above; assay type: in vivo; conditions: 48 h post 75mg/kg ip, mouse 1-4; listed as PU-HZ151

Question: For `CC(C)(C)CNCCn1c(Sc2cc3c(cc2I)OCO3)nc2c(N)ncnc21` [Compound 85], which “% PU-HZ151 remaining” value ([1]; 15 min) is on record?
Answer: 79.8%

Question: What about the “% PU-HZ151 remaining” value ([1]; 30 min) of the same molecule?
Answer: 66.9%

Question: And the “% PU-HZ151 remaining” value ([1]; 60 min)?
Answer: 50.9%

Question: And the “inhibition of PU-HZ151 metabolism” value ([1]; troleandomycin)?
Answer: 40%

Question: What about the inhibition at 10 µM [2] of the same molecule?
Answer: -18%

Question: What about the “% PU-HZ151 remaining” value ([3]; 15 min) of the same molecule?
Answer: 59.7%

Question: What about the “% PU-HZ151 remaining” value ([3]; 30 min) of the same molecule?
Answer: 42.1%

Question: And the “% PU-HZ151 remaining” value ([3]; 60 min)?
Answer: 22.4%

Question: And the “inhibition of PU-HZ151 metabolism” value ([3]; montelukast)?
Answer: 6%

Question: And the “Epichaperome modulation (Native PAGE), R1-R3” value ([4]; [PU-HZ151] 0.05 uM)?
Answer: 101.613 and 126.223 and 117.544

Question: What about the “Epichaperome modulation (Native PAGE), R1-R3” value ([4]; [PU-HZ151] 0.1 uM) of the same molecule?
Answer: 92.742 and 86.889 and 60.276

Question: What about the “% PU-HZ151 remaining” value ([5]; 15 min) of the same molecule?
Answer: 59.2%

Question: And the “% PU-HZ151 remaining” value ([5]; 30 min)?
Answer: 39.3%

Question: What about the “% PU-HZ151 remaining” value ([5]; 60 min) of the same molecule?
Answer: 20.2%

Question: What about the “inhibition of PU-HZ151 metabolism” value ([5]; benzylnirvanol) of the same molecule?
Answer: 4%

Question: And the pIC50 [6]?
Answer: 8.09

Question: What about the “concentration needed to induce toxicity” value [7] of the same molecule?
Answer: 100 µM

Question: What about the Brain level ([8]; time 5 min, individual animals) of the same molecule?
Answer: 15.4588 and 7.86 and 11.67

Question: And the Brain level ([8]; time 0.5 h, individual animals)?
Answer: 4.224 and 4.34 and 4.57

Question: And the Brain level ([8]; time 1 h, individual animals)?
Answer: 2.2188 and 1.91 and 1.47

Question: What about the Brain level ([8]; time 4 h, individual animals) of the same molecule?
Answer: 0.07412 and 0.06266 and 0.11 and 0.04

Question: And the Brain level ([8]; time 8 h, individual animals)?
Answer: 0.009121 and 0.03148 and 0.03 and 0.11

Question: What about the Plasma level ([8]; time 5 min, individual animals) of the same molecule?
Answer: 9.01 and 9.336 and 14.2069 and 3.61

Question: And the Plasma level ([8]; time 0.5 h, individual animals)?
Answer: 1.67 and 1.018 and 1.136 and 1.35

Question: And the Plasma level ([8]; time 1 h, individual animals)?
Answer: 0.32 and 0.7228 and 0.6745 and 0.42

Question: And the Plasma level ([8]; time 4 h, individual animals)?
Answer: 0.02 and 0.03223 and 0.03275 and 0.03

Question: And the Plasma level ([8]; time 8 h, individual animals)?
Answer: 0.01 (2×) and 0 (2×)

Question: What about the “brain exposure relative to PU-H71” value ([8]; i.v. 10 mg kg^−1) of the same molecule?
Answer: approximately ten-fold higher

Question: What about the Cmax ([8]; male, B6D2F1, mouse, brain and lung, iv, single i.v. 10 mg/kg) of the same molecule?
Answer: 10 to 15 µM

Question: And the Kp ([8]; male, B6D2F1, mouse, brain, 10 mg kg^−1, oral administration, read-out: brain/plasma)?
Answer: 1.6

Question: What about the concentration at 5 min ([8]; male, B6D2F1, mouse, brain, intravenous, 10 mg kg^-1, Brain, time 5 min, individual animals, read-out: Brain level) of the same molecule?
Answer: 13.5 µM

Question: And the concentration at 0.5 h ([8]; male, B6D2F1, mouse, brain, intravenous, 10 mg kg^−1, Brain, time 0.5 h, individual animals, read-out: Brain level)?
Answer: 4.58 µM

Question: What about the concentration at 1 h ([8]; male, B6D2F1, mouse, brain, intravenous, 10 mg kg^−1, Brain, time 1 h, individual animals, read-out: Brain level) of the same molecule?
Answer: 2.06 µM

Question: And the Kp ([8]; male, B6D2F1, mouse, brain, iv, 10 mg kg^−1, read-out: brain to plasma ratio)?
Answer: 2.35

Question: And the AUC ([8]; male, B6D2F1, mouse, brain, iv, i.v. 10 mg kg^−1, read-out: brain exposure, AUC)?
Answer: 8.25 µM·h

Question: And the AUC ([8]; male, B6D2F1, mouse, plasma, iv, i.v. 10 mg kg^−1, read-out: plasma exposure, AUC)?
Answer: 3.52 µM·h

Question: And the bioavailability ([8]; male, B6D2F1, mouse, plasma, oral, 10 mg kg^−1)?
Answer: 68%

Question: What about the “survival vs vehicle, log-rank P” value [9] of the same molecule?
Answer: 0.0001

Question: And the concentration at 48 h [10]?
Answer: 1.67 µM

Question: What about the “[PU-HZ151] Liver” value [11] of the same molecule?
Answer: 0.002 µM

Question: And the “[PU-HZ151] MDA-MB-468 TUMOR” value [11]?
Answer: 1.786 µM and 1.509 µM and 1.067 µM
